Experimental data: the CheMixHub viscosity set
“And” between values parts separate entries of the source, which are not always exact repeats. Equal values may be shown once.

Test: xn = mol fraction of the nth substance listed

NCC(=O)O + O
viscosity
Details	101 kPa	101.33 kPa
293.15 K, x1 = 0.0194	1.181 mPa·s	–
293.15 K, x1 = 0.0294	1.272 mPa·s	–
293.15 K, x1 = 0.036	1.332 mPa·s	–
298.15 K, x1 = 0.0002174	0.8944 mPa·s and 0.8944 mPa·s	–
298.15 K, x1 = 0.0004	0.894 mPa·s	–
298.15 K, x1 = 0.0007	0.8972 mPa·s	–
298.15 K, x1 = 0.0009	0.8942 mPa·s	–
298.15 K, x1 = 0.0009413	0.9111 mPa·s and 0.9111 mPa·s	–
298.15 K, x1 = 0.00135	0.8968 mPa·s	–
298.15 K, x1 = 0.0018	0.8995 mPa·s	–
298.15 K, x1 = 0.002695	0.9053 mPa·s	–
298.15 K, x1 = 0.003657	0.9319 mPa·s and 0.9319 mPa·s	–
298.15 K, x1 = 0.005496	0.932 mPa·s and 0.932 mPa·s	–
298.15 K, x1 = 0.008976	0.9754 mPa·s and 0.9754 mPa·s	–
298.15 K, x1 = 0.0108	0.9757 mPa·s and 0.9757 mPa·s	–
298.15 K, x1 = 0.01215	0.9853 mPa·s and 0.9853 mPa·s	–
298.15 K, x1 = 0.01456	0.986 mPa·s and 0.986 mPa·s	–
303.15 K, x1 = 0.0003	0.803 mPa·s	–
303.15 K, x1 = 0.0004	0.8014 mPa·s	–
303.15 K, x1 = 0.0007	0.8046 mPa·s	–
303.15 K, x1 = 0.0009	0.801 mPa·s	–
303.15 K, x1 = 0.00135	0.8035 mPa·s	–
303.15 K, x1 = 0.0018	0.8126 mPa·s	–
303.15 K, x1 = 0.002	0.816 mPa·s	–
303.15 K, x1 = 0.0022	0.8155 mPa·s	–
303.15 K, x1 = 0.002695	0.8117 mPa·s	–
303.15 K, x1 = 0.0029	0.8217 mPa·s	–
303.15 K, x1 = 0.003592	0.8207 mPa·s	–
303.15 K, x1 = 0.0063	0.8489 mPa·s	–
303.15 K, x1 = 0.0107	0.8659 mPa·s	–
303.15 K, x1 = 0.01246	0.8788 mPa·s	–
303.15 K, x1 = 0.0129	0.8994 mPa·s	–
303.15 K, x1 = 0.0194	0.9492 mPa·s	–
303.15 K, x1 = 0.0294	1.026 mPa·s	–
303.15 K, x1 = 0.036	1.076 mPa·s	–
308.15 K, x1 = 0.00135	0.7251 mPa·s	–
308.15 K, x1 = 0.0018	0.7276 mPa·s and 0.7355 mPa·s	0.7365 mPa·s
308.15 K, x1 = 0.0022	0.7378 mPa·s	–
308.15 K, x1 = 0.0025	0.7407 mPa·s	–
308.15 K, x1 = 0.0029	0.7439 mPa·s	–
308.15 K, x1 = 0.003657	0.7609 mPa·s and 0.7609 mPa·s	–
308.15 K, x1 = 0.005496	0.7659 mPa·s and 0.7659 mPa·s	–
308.15 K, x1 = 0.007374	0.7773 mPa·s and 0.7773 mPa·s	–
308.15 K, x1 = 0.0108	0.8059 mPa·s and 0.8059 mPa·s	–
308.15 K, x1 = 0.01215	0.806 mPa·s and 0.806 mPa·s	–
308.15 K, x1 = 0.01456	0.8089 mPa·s and 0.8089 mPa·s	–
313.15 K, x1 = 0.001	0.664 mPa·s and 0.6667 mPa·s	–
313.15 K, x1 = 0.00135	0.6585 mPa·s	–
313.15 K, x1 = 0.002	0.667 mPa·s	–
313.15 K, x1 = 0.0022	0.6712 mPa·s	–
313.15 K, x1 = 0.0025	0.6739 mPa·s	–
313.15 K, x1 = 0.005375	0.6819 mPa·s	–
313.15 K, x1 = 0.0129	0.727 mPa·s	–
313.15 K, x1 = 0.0194	0.7628 mPa·s	–
313.15 K, x1 = 0.0294	0.8179 mPa·s	–
313.15 K, x1 = 0.036	0.8542 mPa·s	–
318.15 K, x1 = 0.0002174	0.6164 mPa·s and 0.6164 mPa·s	–
318.15 K, x1 = 0.0009	0.6007 mPa·s	–
318.15 K, x1 = 0.0018	0.6052 mPa·s	–
318.15 K, x1 = 0.001865	0.6321 mPa·s	–
318.15 K, x1 = 0.002245	0.6076 mPa·s	–
318.15 K, x1 = 0.002695	0.6099 mPa·s	–
318.15 K, x1 = 0.005496	0.6417 mPa·s	–
318.15 K, x1 = 0.007374	0.6579 mPa·s and 0.6579 mPa·s	–
318.15 K, x1 = 0.008976	0.6725 mPa·s and 0.6725 mPa·s	–
318.15 K, x1 = 0.0108	0.6756 mPa·s and 0.6756 mPa·s	–
318.15 K, x1 = 0.01215	0.6757 mPa·s and 0.6757 mPa·s	–
318.15 K, x1 = 0.01456	0.6821 mPa·s and 0.6821 mPa·s	–
323.15 K, x1 = 0.0003	0.5508 mPa·s	–
323.15 K, x1 = 0.002	0.5589 mPa·s	–
323.15 K, x1 = 0.008932	0.5878 mPa·s	–
323.15 K, x1 = 0.01246	0.6035 mPa·s	–
323.15 K, x1 = 0.0194	0.6412 mPa·s	–
323.15 K, x1 = 0.0294	0.6885 mPa·s	–
323.15 K, x1 = 0.036	0.7197 mPa·s	–

O=C(c1ccccc1)c1ccc2n1CCC2C(=O)[O-].[NH3+]C(CO)(CO)CO (stereo not drawn) + O
viscosity [mPa·s], 101 kPa
Details	293.15 K	298.15 K	303.15 K	308.15 K	313.15 K
x1 = 0.0002	1.037	0.9251	0.8319	0.7538	0.688
x1 = 0.0007	1.071	0.9598	0.8666	0.7882	0.723
x1 = 0.001	1.105	0.9936	0.9005	0.822	0.7569

O=C[C@H](O)[C@@H](O)[C@H](O[C@@H]1O[C@H](CO)[C@H](O)[C@H](O)[C@H]1O)[C@H](O)CO + O
viscosity [mPa·s]
Details	100 kPa	101 kPa
293.15 K, x1 = 0.002	–	1.074
293.15 K, x1 = 0.004	–	1.155
293.15 K, x1 = 0.005	–	1.241
298.15 K, x1 = 0.002	0.976	0.9875
298.15 K, x1 = 0.004	–	1.065
298.15 K, x1 = 0.005	–	1.149
303.15 K, x1 = 0.002	0.873	0.8893
303.15 K, x1 = 0.004	–	0.9654
303.15 K, x1 = 0.005	–	1.047
308.15 K, x1 = 0.001805	–	0.784
308.15 K, x1 = 0.002	0.786	0.7922
308.15 K, x1 = 0.003683	–	0.864
308.15 K, x1 = 0.004	–	0.8716
308.15 K, x1 = 0.005	–	0.9524
308.15 K, x1 = 0.005432	–	0.934
308.15 K, x1 = 0.006317	–	0.966
308.15 K, x1 = 0.007218	–	1.012
308.15 K, x1 = 0.008098	–	1.063
313.15 K, x1 = 0.002	0.709	0.7014
313.15 K, x1 = 0.004	–	0.7822
313.15 K, x1 = 0.005	–	0.8636
318.15 K, x1 = 0.001802	–	0.601
318.15 K, x1 = 0.002729	–	0.621
318.15 K, x1 = 0.003613	–	0.642
318.15 K, x1 = 0.004521	–	0.67
318.15 K, x1 = 0.006298	–	0.725
318.15 K, x1 = 0.007249	–	0.757
318.15 K, x1 = 0.01074	–	0.885
